Key:
[1] = tested on: PGE2 (Prostaglandin E2); experiment: PGE2 production inhibition experiment (ELISA); assay type: cell-based, Human; details: for PGE2: human fibroblasts, 500 μM H2O2 24 h, then test substance (33: 100 μg/ml) 48 h, culture medium
Experimental: (§1) Human fibroblasts (PromoCell, Germany) were seeded into 6-well culture plates at a concentration of 1×10^5 cells and incubated in 37° C., 5% CO2 incubator for 24 hours. After 500 μM of H2O2 was treated in a well and stimulated for 24 hours, the kaempferol3-O-[2-O″-(E)-p-coumaroyl][beta-D-glucopyranosyl-(1-3)-O-alpha-L-rhamnopyranosyl-(1→6)-O-beta-D-glucopyranoside](‘new material 33’) was treated at a concentration of 100 μg/ml each, and was reacted for 48 hours. After completion of the reaction, the culture medium was collected and subjected to ELISA analysis. At this time, α-bisabolol, which is a material frequently used as an anti-inflammation agent and an abirritant, was used as a control. PGE2 used Assay Design's kit and IL-6 and IL-8 used Endogen's kit, and the experiment was conducted according to the method specified in each company's manual. (‘33’ means new material 33) Inhibitory effect={1−(test sample−control)/(H2O2−control)}×100 <Equation 1>

[2] = tested on: skin; experiment: Skin accumulation stimulation experiment, human repeated insult patch test (HRIPT); assay type: in vivo; set-up: key to skin reactivity (ICDRG criteria): −: negative (no response); ±: doubtful or slight erythema, etc.; +: weak reaction (which is accompanied with no phlyctenule), erythema, papule; ++: severe reaction (which is accompanied with phlyctenule), erythema, papule, phlyctenule; +++: strong reaction, bullae reaction; details: for Average reactivity: 9 patches over 3 weeks, 15 subjects, less than 3 = stable composition
Experimental: Human repeated insult patch tests (HRIPT) were performed to confirm the skin accumulation stimulation of the kaempferol3-O-[2-O″-(E)-p-coumaroyl][beta-D-glucopyranosyl-(1→3)-O-alpha-L-rhamnopyranosyl-(1→6)-O-beta-D-glucopyranoside] and to calculate the concentration range available for the skin.
Specifically, 15 healthy adult subjects were randomly selected, and the test composition (the skin composition including an emulsifier, a stabilizer, purified water, etc. in addition to the compound) containing 0.5 wt %, 1 wt %, and 3 wt % of the compound was added dropwise by 20 μl per chamber (IQ chamber, Epitest Ltd, Finland). After 24 hours from patching the upper right part of the back of a subject, it was replaced with the new patch. A total of 9 patches were conducted, three times a week for total 3 weeks, in such manner, the skin reactions before and after patch were examined every time, and the skin reactions until 48 hours after removing the final patch were observed, and the average reactivity was observed.
The skin response was determined according to the criteria of the International Contact Dermatitis Research Group (ICDRG). ‘New material 33’ in the table above is kaempferol3-O-[2-O″-(E)-p-coumaroyl][beta-D-glucopyranosyl-(1→3)-O-alpha-L-rhamnopyranosyl-(1→6)-O-beta-D-glucopyranoside].

[3] = tested on: IL-8 (Interleukin 8); experiment: IL-8 production inhibition experiment (ELISA); assay type: cell-based, Human; details: for IL-8: human fibroblasts, 500 μM H2O2 24 h, then test substance (33: 100 μg/ml) 48 h, culture medium
Experimental: as §1

[4] = tested on: IL-6 (Interleukin 6); experiment: IL-6 production inhibition experiment (ELISA); assay type: cell-based, Human; details: for IL-6: human fibroblasts, 500 μM H2O2 24 h, then test substance (33: 100 μg/ml) 48 h, culture medium
Experimental: as §1

## C[C@@H]1O[C@@H](OC[C@H]2O[C@@H](Oc3c(-c4ccc(O)cc4)oc4cc(O)cc(O)c4c3=O)[C@H](OC(=O)/C=C/c3ccc(O)cc3)[C@@H](O)[C@@H]2O)[C@H](O)[C@H](O[C@@H]2O[C@H](CO)[C@@H](O)[C@H](O)[C@H]2O)[C@H]1O [new material 33, kaempferol3-O-[2-O″-(E)-p-coumaroyl][beta-D-glucopyranosyl-(1→3)-O-alpha-L-rhamnopyranosyl-(1→6)-O-beta-D-glucopyranoside]]
[1]; Homo sapiens, 100 μg/ml, {1−(test sample−control)/(H2O2−control)}×100, control = a-bisabolol, read-out: Inhibitory Effect according to Equation 1, PGE2
  inhibition at 100 µg/mL: 82.1%
[1]
  PGE2: 231 pg/mL
[1]; in words
  effect on PGE2 increased by H2O2: effect of reducing
[2]; 0.5 wt %, 1st patch
  Number of subjects with + reactivity: 0 person
  Number of subjects with ++ reactivity: 0 person
  Number of subjects with ± reactivity: 0 person
[2]; 0.5 wt %, 2nd patch
  Number of subjects with + reactivity: 0 person
  Number of subjects with ++ reactivity: 0 person
  Number of subjects with ± reactivity: 0 person
[2]; 0.5 wt %, 3rd patch
  Number of subjects with + reactivity: 0 person
  Number of subjects with ++ reactivity: 0 person
  Number of subjects with ± reactivity: 0 person
[2]; 0.5 wt %, 4th patch
  Number of subjects with + reactivity: 0 person
  Number of subjects with ++ reactivity: 0 person
  Number of subjects with ± reactivity: 0 person
[2]; 0.5 wt %, 5th patch
  Number of subjects with + reactivity: 0 person
  Number of subjects with ++ reactivity: 0 person
  Number of subjects with ± reactivity: 0 person
[2]; 0.5 wt %, 6th patch
  Number of subjects with + reactivity: 0 person
  Number of subjects with ++ reactivity: 0 person
  Number of subjects with ± reactivity: 0 person
[2]; 0.5 wt %, 7th patch
  Number of subjects with + reactivity: 0 person
  Number of subjects with ++ reactivity: 0 person
  Number of subjects with ± reactivity: 0 person
[2]; 0.5 wt %, 8th patch
  Number of subjects with + reactivity: 0 person
  Number of subjects with ++ reactivity: 0 person
  Number of subjects with ± reactivity: 0 person
[2]; 0.5 wt %
  Average reactivity: 0
[2]; 0.5 wt %, 9th patch
  Number of subjects with + reactivity: 0 person
  Number of subjects with ++ reactivity: 0 person
  Number of subjects with ± reactivity: 0 person
[2]; 1 wt %, 1st patch
  Number of subjects with + reactivity: 0 person
  Number of subjects with ++ reactivity: 0 person
  Number of subjects with ± reactivity: 0 person
[2]; 1 wt %, 2nd patch
  Number of subjects with + reactivity: 0 person
  Number of subjects with ++ reactivity: 0 person
  Number of subjects with ± reactivity: 0 person
[2]; 1 wt %, 3rd patch
  Number of subjects with + reactivity: 0 person
  Number of subjects with ++ reactivity: 0 person
  Number of subjects with ± reactivity: 0 person
[2]; 1 wt %, 4th patch
  Number of subjects with + reactivity: 0 person
  Number of subjects with ++ reactivity: 0 person
  Number of subjects with ± reactivity: 0 person
[2]; 1 wt %, 5th patch
  Number of subjects with + reactivity: 0 person
  Number of subjects with ++ reactivity: 0 person
  Number of subjects with ± reactivity: 0 person
[2]; 1 wt %, 6th patch
  Number of subjects with + reactivity: 0 person
  Number of subjects with ++ reactivity: 0 person
  Number of subjects with ± reactivity: 0 person
[2]; 1 wt %, 7th patch
  Number of subjects with + reactivity: 0 person
  Number of subjects with ++ reactivity: 0 person
  Number of subjects with ± reactivity: 0 person
[2]; 1 wt %, 8th patch
  Number of subjects with + reactivity: 0 person
  Number of subjects with ++ reactivity: 0 person
  Number of subjects with ± reactivity: 0 person
[2]; 1 wt %
  Average reactivity: 0
[2]; 1 wt %, 9th patch
  Number of subjects with + reactivity: 0 person
  Number of subjects with ++ reactivity: 0 person
  Number of subjects with ± reactivity: 0 person
[2]; 3 wt %, 1st patch
  Number of subjects with + reactivity: 0 person
  Number of subjects with ++ reactivity: 0 person
  Number of subjects with ± reactivity: 0 person
[2]; 3 wt %, 2nd patch
  Number of subjects with + reactivity: 0 person
  Number of subjects with ++ reactivity: 0 person
  Number of subjects with ± reactivity: 0 person
[2]; 3 wt %, 3rd patch
  Number of subjects with + reactivity: 0 person
  Number of subjects with ++ reactivity: 0 person
  Number of subjects with ± reactivity: 0 person
[2]; 3 wt %, 4th patch
  Number of subjects with + reactivity: 0 person
  Number of subjects with ++ reactivity: 0 person
  Number of subjects with ± reactivity: 0 person
[2]; 3 wt %, 5th patch
  Number of subjects with + reactivity: 0 person
  Number of subjects with ++ reactivity: 0 person
  Number of subjects with ± reactivity: 0 person
[2]; 3 wt %, 6th patch
  Number of subjects with + reactivity: 0 person
  Number of subjects with ++ reactivity: 0 person
  Number of subjects with ± reactivity: 0 person
[2]; 3 wt %, 7th patch
  Number of subjects with + reactivity: 0 person
  Number of subjects with ++ reactivity: 0 person
  Number of subjects with ± reactivity: 0 person
[2]; 3 wt %, 8th patch
  Number of subjects with + reactivity: 0 person
  Number of subjects with ++ reactivity: 0 person
  Number of subjects with ± reactivity: 0 person
[2]; 3 wt %
  Average reactivity: 0
[2]; 3 wt %, 9th patch
  Number of subjects with + reactivity: 0 person
  Number of subjects with ++ reactivity: 0 person
  Number of subjects with ± reactivity: 0 person
[2]; content range 0.5 to 3 wt %, all subjects
  skin reactivity (ICDRG criteria): −
[2]; content range 0.5 to 3 wt %, in words
  cumulative irritation of the skin: no cumulative irritation of the skin
[3]; Homo sapiens, 100 μg/ml, {1−(test sample−control)/(H2O2−control)}×100, control = a-bisabolol, read-out: Inhibitory Effect according to Equation 1, IL-8
  inhibition at 100 µg/mL: 88.9%
[3]
  IL-8: 210 pg/mL
[3]; in words
  effect on IL-8 increased by H2O2: effect of reducing
[4]; Homo sapiens, 100 μg/ml, {1−(test sample−control)/(H2O2−control)}×100, control = a-bisabolol, read-out: Inhibitory Effect according to Equation 1, IL-6
  inhibition at 100 µg/mL: 72.3%
[4]
  IL-6: 198 pg/mL
[4]; in words
  effect on IL-6 increased by H2O2: effect of reducing

## α-bisabolol [a-bisabolol, reference compound]
[1]
  PGE2: 205 pg/mL
[3]
  IL-8: 200 pg/mL
[4]
  IL-6: 180 pg/mL

From patent publication US11248017B2, “Anti-inflammatory composition including novel kaempferol-based compound derived from post-fermented tea” (AMOREPACIFIC CORPORATION, priority 2017, dated 2022)
